Data on 17 molecules can be found in patent US20180148418A1, “AMIDO-SUBSTITUTED CYCLOHEXANE DERIVATIVES” (Bayer Pharma Aktiengesellschaft, priority 2015, published 2018).

The IC50 is the concentration at which inhibition is half-maximal.

Test [1] deals with HEK293 cells cotransfected with the FOP control vector. The experiment in a line: HEK293 FOP assay (control reporter with non-functional TCF elements). It is filed as cell-based. To be noted: 16 hours. A digest of the protocol:
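Stable HEK293 line carrying FOP control reporter (randomized non-functional TCF sites, with pcDNA3), Geneticin-selected, plated 24 h before assay. Stimulated with recombinant human Wnt-3a (2500-5 ng/ml) and compounds 50 μM–15 nM (3.16-fold steps) in CAFTY buffer pH 7.4 with 2 mM Ca2+, 0.01% BSA, run parallel to TOP line.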

A further test addresses T1, TNKS1 (Homo sapiens, UniProt O95271).
T1 construct: purchased BPS Bioscience, San Diego, USA 80579 (TNKS1 Histone Ribosylation Assay Kit)
T1 sequence (O95271 1-1327): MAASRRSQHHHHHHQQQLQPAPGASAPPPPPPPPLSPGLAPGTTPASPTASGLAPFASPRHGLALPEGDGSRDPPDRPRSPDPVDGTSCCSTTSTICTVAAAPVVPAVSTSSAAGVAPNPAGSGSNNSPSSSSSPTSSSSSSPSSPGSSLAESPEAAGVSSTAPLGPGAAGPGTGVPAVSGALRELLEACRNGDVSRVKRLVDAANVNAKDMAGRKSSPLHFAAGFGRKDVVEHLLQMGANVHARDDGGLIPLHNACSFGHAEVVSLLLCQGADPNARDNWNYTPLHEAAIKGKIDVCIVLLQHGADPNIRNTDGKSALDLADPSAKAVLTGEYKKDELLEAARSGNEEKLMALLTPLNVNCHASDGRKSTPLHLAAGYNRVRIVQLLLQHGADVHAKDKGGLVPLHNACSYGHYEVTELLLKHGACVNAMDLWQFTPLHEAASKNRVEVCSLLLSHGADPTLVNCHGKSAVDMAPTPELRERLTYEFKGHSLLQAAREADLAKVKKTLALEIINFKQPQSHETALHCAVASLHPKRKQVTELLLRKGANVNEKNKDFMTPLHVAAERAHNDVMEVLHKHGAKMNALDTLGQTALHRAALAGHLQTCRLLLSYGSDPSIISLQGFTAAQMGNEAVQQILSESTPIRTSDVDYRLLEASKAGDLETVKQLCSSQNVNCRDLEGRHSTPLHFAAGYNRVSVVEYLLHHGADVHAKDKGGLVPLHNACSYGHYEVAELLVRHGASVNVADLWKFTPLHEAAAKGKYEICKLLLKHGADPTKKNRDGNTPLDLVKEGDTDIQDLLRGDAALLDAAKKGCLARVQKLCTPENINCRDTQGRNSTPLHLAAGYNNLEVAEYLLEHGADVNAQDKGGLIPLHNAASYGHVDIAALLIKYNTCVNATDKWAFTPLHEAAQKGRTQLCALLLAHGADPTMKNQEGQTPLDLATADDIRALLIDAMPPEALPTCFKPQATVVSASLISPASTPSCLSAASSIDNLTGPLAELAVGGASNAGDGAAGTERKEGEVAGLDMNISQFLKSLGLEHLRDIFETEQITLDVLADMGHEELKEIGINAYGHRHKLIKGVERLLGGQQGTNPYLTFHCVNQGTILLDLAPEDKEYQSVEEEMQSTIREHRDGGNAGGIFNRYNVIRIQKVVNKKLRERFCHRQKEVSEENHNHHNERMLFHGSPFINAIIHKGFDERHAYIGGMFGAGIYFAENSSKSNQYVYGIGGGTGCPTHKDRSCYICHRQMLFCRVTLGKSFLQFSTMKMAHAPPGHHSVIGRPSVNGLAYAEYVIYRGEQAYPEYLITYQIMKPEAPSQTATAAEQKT
The experiment in a line: TNKS1 Assay B (auto-parsylation, [3H]-NAD+ SPA). To be noted: 6 nM TNKS1, auto-parsylation, over night at room temperature. It is filed as biochemical. How it is done:
The potency of selected compounds according to the invention was assessed applying a modified in vitro inhibition assay. Here, the TNKS1 catalyzed NAD^+-dependent ribosylation of the enzyme itself (auto-parsylation) was detected using [^3H]-NAD^+ as substrate and applying the scintillation proximity assay (SPA) method to detect tritium-labeled, parsylated TNKS1. The intensity of the readout signal is proportional to the incorporated [^3H]-NAD^+. Inhibition of TNKS1 leads to a decreased incorporation of [^3H]-NAD^+ and consequently to a lower readout signal intensity. The concentration of a test compound which inhibits the enzyme activity by 50% (corresponds to half of the normed readout signal intensity) is reported as IC50.
Protocol Auto-Parsylation Assay
The assay was conducted in a 96 well MTP format with the identical TNKS1 enzyme sample and NAD^+ sample as in the histone ribosylation assay with the following modifications: TNKS1 enzyme sample was diluted with a modified assay buffer (50 mM MES pH 7.0, 1 mM DTT, 0.01% Triton X-100) to a final concentration of 6 nM TNKS1 and 10×NAD^+ solution was diluted with the modified assay buffer (s. above) to a final 0.445×NAD^+ solution doped with 100 Bq/μl [^3H]-NAD^+[Catalog #NET443H050UC, Perkin Elmer, Waltham, Mass., USA]. Substrate solution (10 μl) was incubated with different test compound concentrations (2.5 ul in 10% DMSO in modified assay buffer) or control (2.5 ul 10% DMSO in modified assay buffer only) and enzyme (10 μl) over night at room temperature. Incorporated tritium was measured after addition of 50 μl SPA beads (1 mg/ml) [Catalog #RPNQ0095 20 mg/ml, Perkin Elmer, Waltham, Mass., USA; diluted 1:10 with Dulbecco's phosphate buffered saline, PBS Catalog #D8537, Sigma-Aldrich, Steinheim, Germany] and detection of the photon emission with a beta count plate reader [Wallac MicroBeta®, Perkin Elmer, Waltham, Mass., USA].

Where only a bound is given, the exact number is not on record here.

Regarding `COCC(C)NC(=O)c1nc[nH]c1C(=O)N[C@H]1CC[C@@]2(CCN(c3ccc(F)cc3Cl)C2=O)CC1` (mixture of isomers) [Example 164, N^5-[(trans)-2-(2-chloro-4-fluorophenyl)-1-oxo-2-azaspiro[4.5]dec-8-yl]-N^4-(1-methoxypropan-2-yl)-1H-imidazole-4,5-dicarboxamide], the IC50 was not below 50000 nM in test [1] (Homo sapiens) and 37 nM against TNKS1.

Regarding `Cc1c(C(C)N(C)C)cnc2c(C(=O)N[C@H]3CC[C@H](C(=O)Nc4ccc(F)cc4Cl)CC3)cnn12` (single isomer, unassigned) [Example 56, N-{trans-4-[(2-chloro-4-fluorophenyl)carbamoyl]cyclohexyl}-6-[1-(dimethylamino)ethyl]-7-methylpyrazolo[1,5-a]pyrimidine-3-carboxamide], the IC50 in test [1] (Homo sapiens) was not below 50000 nM; against TNKS1, 840 nM.

For `Cc1c(C(C)N(C)C)cnc2c(C(=O)N[C@H]3CC[C@H](C(=O)Nc4ccc(F)cc4Cl)CC3)cnn12` (single isomer, unassigned) [Example 57, N-{trans-4-[(2-chloro-4-fluorophenyl)carbamoyl]cyclohexyl}-6-[1-(dimethylamino)ethyl]-7-methylpyrazolo[1,5-a]pyrimidine-3-carboxamide], the IC50 in test [1] was not below 50000 nM; at TNKS1, 440 nM.

As for `CNC(=O)c1nc[nH]c1C(=O)N[C@H]1CC[C@H](C(=O)Nc2cc(F)c(F)cc2Cl)CC1` [Example 3, N^5-{trans-4-[(2-chloro-4,5-difluorophenyl)carbamoyl]cyclohexyl}-N^4-methyl-1H-imidazole-4,5-dicarboxamide], the IC50 in test [1] (Homo sapiens) was not below 50000 nM; against TNKS1, 10 nM.

For `O=C(NCCN1CCCCC1)c1nc[nH]c1C(=O)N[C@H]1CC[C@H](C(=O)Nc2cc(F)c(F)cc2Cl)CC1` [Example 4, N^5-{trans-4-[(2-chloro-4,5-difluorophenyl)carbamoyl]cyclohexyl}-N^4-[2-(piperidin-1-yl)ethyl]-1H-imidazole-4,5-dicarboxamide], the values for the IC50 (in test [1] (Homo sapiens); against TNKS1) were not below 50000 nM and 2.2 nM, respectively.

Regarding `CNC(=O)c1nc[nH]c1C(=O)N[C@H]1CC[C@H](C(=O)Nc2cc(OC)c(OC)cc2Cl)CC1` [Example 5, N^5-{trans-4-[(2-chloro-4,5-dimethoxyphenyl)carbamoyl]cyclohexyl}-N^4-methyl-1H-imidazole-4,5-dicarboxamide], the IC50 in test [1] (Homo sapiens) is not below 50000 nM; on TNKS1 it was 150 nM.

For the molecule `CNC(=O)c1nc[nH]c1C(=O)N[C@H]1CC[C@H](C(=O)Nc2c(F)cc(F)cc2Cl)CC1` [Example 6, N^5-{trans-4-[(2-chloro-4,6-difluorophenyl)carbamoyl]cyclohexyl}-N^4-methyl-1H-imidazole-4,5-dicarboxamide], the IC50 was not below 50000 nM in test [1] (Homo sapiens) and 77 nM against TNKS1.

For the molecule `CNC(=O)c1nc[nH]c1C(=O)N[C@H]1CC[C@H](C(=O)Nc2ccc(F)cc2Br)CC1` [Example 7, N^5-{trans-4-[(2-bromo-4-fluorophenyl)carbamoyl]cyclohexyl}-N^4-methyl-1H-imidazole-4,5-dicarboxamide], the values for the IC50 (in test [1] (Homo sapiens); at TNKS1) were not below 50000 nM and 24 nM, respectively.

Turning to `CNC(=O)c1nc[nH]c1C(=O)N[C@H]1CC[C@H](C(=O)Nc2ccc(F)cc2)CC1` [Example 8, N^5-{trans-4-[(4-fluorophenyl)carbamoyl]cyclohexyl}-N^4-methyl-1H-imidazole-4,5-dicarboxamide], the IC50 in test [1] (Homo sapiens) was not below 50000 nM; against TNKS1, 4100 nM.

In the case of `CNC(=O)c1nc[nH]c1C(=O)N[C@H]1CC[C@H](C(=O)Nc2ccc(C)cc2Cl)CC1` [Example 9, N^5-{trans-4-[(2-chloro-4-methylphenyl)carbamoyl]cyclohexyl}-N^4-methyl-1H-imidazole-4,5-dicarboxamide], the results for the IC50 (in test [1] (Homo sapiens); on TNKS1) were not below 50000 nM and 85 nM, respectively.

Turning to `CNC(=O)c1[nH]cnc1C(=O)NC1CCC(C(=O)Nc2ccc(F)cc2Cl)CC1OC` (stereo not drawn) [Example 36, N^4-{(1α,2β,4β)-4-[(2-chloro-4-fluorophenyl)carbamoyl]-2-methoxycyclohexyl}-N^5-methyl-1H-imidazole-4,5-dicarboxamide], the IC50 in test [1] was not below 50000 nM; against TNKS1, more than 10000 nM.

Regarding `CNC(=O)c1[nH]cnc1C(=O)NC1CCC(C(=O)Nc2ccc(F)cc2Cl)CC1OC` (stereo not drawn) [Example 37, N^4-{(1α,2β,4β)-4-[(2-chloro-4-fluorophenyl)carbamoyl]-2-methoxycyclohexyl}-N^5-methyl-1H-imidazole-4,5-dicarboxamide], the figures for the IC50 (in test [1]; against TNKS1) were not below 50000 nM and more than 10000 nM, respectively.

As for `O=C(NCCC1CC1)c1nc[nH]c1C(=O)N[C@H]1CC[C@H](C(=O)Nc2cc(N3CCOCC3)ccc2Cl)CC1` [Example 93, N^5-(trans-4-{[2-chloro-5-(morpholin-4-yl)phenyl]carbamoyl}cyclohexyl)-N^4-(2-cyclopropylethyl)-1H-imidazole-4,5-dicarboxamide], the IC50 came out at 12000 nM in test [1] (Homo sapiens) and 790 nM on TNKS1.

As to `CC(C)(O)CNC(=O)c1nc[nH]c1C(=O)N[C@H]1CC[C@H](C(=O)Nc2cc(N3CCOCC3)ccc2Cl)CC1` [Example 94, N^5-(trans-4-{[2-chloro-5-(morpholin-4-yl)phenyl]carbamoyl}cyclohexyl)-N^4-(2-hydroxy-2-methylpropyl)-1H-imidazole-4,5-dicarboxamide], the IC50 is not below 50000 nM in test [1] (Homo sapiens) and 1300 nM against TNKS1.

As for `O=C(NCC(F)(F)F)c1nc[nH]c1C(=O)N[C@H]1CC[C@H](C(=O)Nc2cc(N3CCOCC3)ccc2Cl)CC1` [Example 95, N^5-(trans-4-{[2-chloro-5-(morpholin-4-yl)phenyl]carbamoyl}cyclohexyl)-N^4-(2,2,2-trifluoroethyl)-1H-imidazole-4,5-dicarboxamide], the IC50 in test [1] (Homo sapiens) came to 39000 nM; against TNKS1 it was 2400 nM.

For the molecule `CNC(=O)c1nc[nH]c1C(=O)N[C@H]1CC[C@H](C(=O)Nc2cnccc2Cl)CC1` [Example 96, N^5-{trans-4-[(4-chloropyridin-3-yl)carbamoyl]cyclohexyl}-N^4-methyl-1H-imidazole-4,5-dicarboxamide], the IC50 in test [1] (Homo sapiens) worked out at 18000 nM; against TNKS1, 40 nM.

In the case of `O=C(NCC1CCCO1)c1nc[nH]c1C(=O)N[C@H]1CC[C@H](C(=O)Nc2cnccc2Cl)CC1` (stereo partly drawn) [Example 97, N^5-{trans-4-[(4-chloropyridin-3-yl)carbamoyl]cyclohexyl}-N^4-(tetrahydrofuran-2-ylmethyl)-1H-imidazole-4,5-dicarboxamide], the IC50 in test [1] (Homo sapiens) was 18000 nM; against TNKS1, 45 nM.
